Consider nine molecules from patent US20160113925A1, “METHODS OF TREATING CANCER WITH A COMBINATION OF GLUCOSE MODULATORS AND BCL-2 INHIBITORS” (EMORY UNIVERSITY, priority 2014, published 2016).

Counter-ions that a name gives are not always drawn.

What all share (format): cell-based
For experiment [1], the system named is L363, KMS11, MM.1S and AMO1 cell lines. Nature of the experiment: Metabolic supplementation of glutamine deprived MM cell lines: reversal of sensitization to ABT-199. To be noted: glutamine deprived L363, KMS11, MM.1S and AMO1 cell lines supplemented with metabolite. The source says:
The metabolic specificity of glutamine deprivation-induced sensitization to ABT-199 […]. Glutamine deprived cells were supplemented with various metabolites generated by metabolism of glutamine and evaluated for their ability to reverse sensitization to ABT-199. Glutamine deprived MM cell lines were supplemented with galactose, dimethyl fumarate, dimethyl succinate, oxaloacetic acid, 2 methyl pyruvate, a mixture of non-essential amino acids or cell permeant dimethyl alpha ketoglutarate (DMK).

The next experiment relates to MM cell lines. Briefly: Sensitization of MM cell lines to ABT-199 (venetoclax) by ritonavir or DON. Conditions: MM cell lines cultured with ritonavir (40 uM) or DON (0.1 mM); FIGS. 1 and 2. The source says: (§1) Ritonavir is an HIV […] that is also a reversible non-competitive inhibitor of glucose transport through GLUT4. […] Glutamine antagonist DON (6-Diazo-5-oxo-L-norleucine) effectively block first step of glutaminolysis pathway and thus restrict cells for using glutamine.

The next experiment concerns MM patient samples. Briefly: Sensitization of MM patient samples to ABT-199 (venetoclax) by ritonavir or DON. To be noted: for efficacy of the combination with ABT-199 (venetoclax) in patient samples: highly responsive samples were from relapse refractory patients.
Text: as §1

The subject of the next experiment is MM lines. Nature of the experiment: Impact of glucose or glutamine withdrawal on sensitivity of MM lines to ABT-199 (venetoclax). The protocol:
Eight MM cell lines were assessed for induction of apoptosis upon culture in media deprived of glucose, glutamine or both nutrients. While all cells are growth inhibited the extent of apoptosis elicited was highly variable. […] Continued survival upon nutrient deprivation despite induction of BIM could be due to increased sequestration of BIM with the induced BCL-2. […] The BH3 mimetic ABT-199 (venetoclax) targets the BIM-BCL-2 interaction. The impact of either glucose or glutamine withdrawal on sensitivity to ABT-199 (venetoclax) was evaluated.

With `COC(=O)C(C)=O` [2 methyl pyruvate], the “reversal of glutamine deprivation-induced sensitization to ABT-199” value (shortened to “reversal”) in experiment [1] is listed as “only the addition of DMK reversed sensitization”.

For `COC(=O)CCC(=O)C(=O)OC` [DMK, dimethyl alpha ketoglutarate], the “reversal” value in experiment [1] is reported as “reversed sensitization”.

For `[N-]=[N+]=CC(=O)CC[C@H](N)C(=O)O` [DON, 6-Diazo-5-oxo-L-norleucine], in the experiment on MM cell lines, the “sensitivity to ABT-199 (venetoclax) in MM cell lines” value is on record as “increased sensitivity”. In addition, in the experiment on MM patient samples, the “sensitivity to ABT-199 (venetoclax) in patient samples” value is on record as “increased sensitivity” and the “efficacy of the combination with ABT-199 (venetoclax) in patient samples” value is “highly efficacious”.

Regarding `CC(C)c1nc(CN(C)C(=O)N[C@H](C(=O)N[C@@H](Cc2ccccc2)C[C@H](O)[C@H](Cc2ccccc2)NC(=O)OCc2cncs2)C(C)C)cs1` [Ritonavir, 1,3-thiazol-5-ylmethyl N-[(2S,3S,5S)-3-hydroxy-5-[[(2S)-3-methyl-2-[[methyl-[(2-propan-2-yl-1,3-thiazol-4-yl)methyl]carbamoyl]amino]butanoyl]amino]-1,6-diphenylhexan-2-yl]carbamate], the “sensitivity to ABT-199 (venetoclax) in MM cell lines” value in the experiment with MM cell lines is on record as “significantly increased sensitivity”. Besides, in the experiment on MM patient samples, the “sensitivity to ABT-199 (venetoclax) in patient samples” value was “significantly increased sensitivity” and the “efficacy of the combination with ABT-199 (venetoclax) in patient samples” value is recorded as “highly efficacious”.

Take `COC(=O)/C=C/C(=O)OC` [dimethyl fumarate]: the “reversal” value in experiment [1] was “only the addition of DMK reversed sensitization”.

For the molecule `COC(=O)CCC(=O)OC` [dimethyl succinate], in experiment [1], the “reversal” value is given as “only the addition of DMK reversed sensitization”.

For `O=C[C@H](O)[C@@H](O)[C@@H](O)[C@H](O)CO` [galactose], in experiment [1], the “reversal” value is “only the addition of DMK reversed sensitization”.

Take `O=C(O)CC(=O)C(=O)O` [oxaloacetic acid]: the “reversal” value in experiment [1] is reported as “only the addition of DMK reversed sensitization”.

Take venetoclax [ABT-199 (venetoclax)]: in the experiment on MM lines, the “sensitization of MM lines to ABT-199 (venetoclax) on nutrient withdrawal” value is listed as “sensitize all MM lines”.
